Experimental findings from patent US11339130B1 (Blade Therapeutics, Inc., priority 2016, dated 2022) are described below.

Like-named read-outs stand apart in the source and are kept apart here.

Holding throughout (format): biochemical
The target in one assay is T1, Human Calpain 2/NS1 (Homo sapiens, UniProt P17655).
T1 sequence (P17655 1-700): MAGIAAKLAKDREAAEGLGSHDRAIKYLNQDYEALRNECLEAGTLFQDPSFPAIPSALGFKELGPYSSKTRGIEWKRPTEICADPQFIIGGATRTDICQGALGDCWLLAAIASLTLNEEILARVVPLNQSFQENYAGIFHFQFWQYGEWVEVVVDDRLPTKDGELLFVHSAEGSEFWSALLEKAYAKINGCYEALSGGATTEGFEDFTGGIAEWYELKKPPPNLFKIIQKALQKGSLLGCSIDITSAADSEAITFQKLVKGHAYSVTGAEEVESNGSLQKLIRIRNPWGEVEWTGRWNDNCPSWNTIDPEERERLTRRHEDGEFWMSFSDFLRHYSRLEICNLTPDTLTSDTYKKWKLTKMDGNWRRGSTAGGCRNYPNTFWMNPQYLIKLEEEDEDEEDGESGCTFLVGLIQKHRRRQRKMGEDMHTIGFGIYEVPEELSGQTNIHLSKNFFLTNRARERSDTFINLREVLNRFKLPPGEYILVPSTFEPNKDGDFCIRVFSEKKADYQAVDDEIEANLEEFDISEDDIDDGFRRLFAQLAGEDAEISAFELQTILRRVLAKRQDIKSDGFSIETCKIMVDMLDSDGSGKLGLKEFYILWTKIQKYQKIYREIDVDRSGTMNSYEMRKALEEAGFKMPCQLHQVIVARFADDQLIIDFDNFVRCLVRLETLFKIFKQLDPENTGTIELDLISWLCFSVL
T1 sequence (P04632 1-268 partner): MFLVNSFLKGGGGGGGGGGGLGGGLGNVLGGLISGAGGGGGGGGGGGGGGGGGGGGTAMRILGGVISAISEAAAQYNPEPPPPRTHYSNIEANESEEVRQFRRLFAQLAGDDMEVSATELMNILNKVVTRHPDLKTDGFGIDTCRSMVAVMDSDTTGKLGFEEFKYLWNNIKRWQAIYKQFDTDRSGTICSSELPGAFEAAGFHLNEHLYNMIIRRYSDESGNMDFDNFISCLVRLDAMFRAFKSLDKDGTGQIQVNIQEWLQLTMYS
Nature of the assay: Calpain inhibition continuous fluorescence (FRET) assay, Human Calpain 2/NS1. The conditions noted are these: read-out: Human Calpain 2/NS1 IC50. The essentials: (§1)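 Calpain activity is measured kinetically with a quenched FRET peptide in 50 mM Tris pH 7.5, 100 mM NaCl, 1 mM DTT, with CaCl2 triggering activation. Rates over 1-5 min are plotted against log inhibitor to obtain IC50 by 4-parameter logistic fitting.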

Another assay deals with T2, Human Calpain 1/NS1 (Homo sapiens, UniProt P07384).
T2 sequence (P07384 1-714): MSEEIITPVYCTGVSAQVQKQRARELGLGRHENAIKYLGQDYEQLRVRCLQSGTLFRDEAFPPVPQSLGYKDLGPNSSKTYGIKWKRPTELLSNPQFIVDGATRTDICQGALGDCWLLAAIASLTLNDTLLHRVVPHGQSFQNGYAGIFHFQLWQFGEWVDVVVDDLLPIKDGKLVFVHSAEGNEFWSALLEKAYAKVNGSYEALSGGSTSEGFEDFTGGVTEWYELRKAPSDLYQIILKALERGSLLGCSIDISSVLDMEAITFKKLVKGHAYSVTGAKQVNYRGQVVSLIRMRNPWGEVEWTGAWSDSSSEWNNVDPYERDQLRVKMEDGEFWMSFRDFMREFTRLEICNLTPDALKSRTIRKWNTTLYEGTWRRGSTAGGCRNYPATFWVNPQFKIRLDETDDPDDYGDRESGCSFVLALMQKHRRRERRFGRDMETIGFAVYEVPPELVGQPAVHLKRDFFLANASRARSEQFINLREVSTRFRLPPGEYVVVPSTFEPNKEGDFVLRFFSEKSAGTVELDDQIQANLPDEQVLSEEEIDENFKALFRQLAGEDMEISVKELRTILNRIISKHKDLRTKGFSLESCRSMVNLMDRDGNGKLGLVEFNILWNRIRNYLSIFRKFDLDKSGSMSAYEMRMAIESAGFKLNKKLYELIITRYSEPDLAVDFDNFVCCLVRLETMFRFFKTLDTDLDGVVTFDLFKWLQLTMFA
T2 sequence (P04632 1-268 partner): T1 sequence (P04632 1-268 partner)
The assay can be described thus: Calpain inhibition continuous fluorescence (FRET) assay, Human Calpain 1/NS1. The note with it: read-out: Human Calpain 1/NS1 IC50. The essentials:
as §1

The target in a further assay is T3, Human Calpain 9/NS1 (Homo sapiens, UniProt O14815).
T3 sequence (O14815 1-690): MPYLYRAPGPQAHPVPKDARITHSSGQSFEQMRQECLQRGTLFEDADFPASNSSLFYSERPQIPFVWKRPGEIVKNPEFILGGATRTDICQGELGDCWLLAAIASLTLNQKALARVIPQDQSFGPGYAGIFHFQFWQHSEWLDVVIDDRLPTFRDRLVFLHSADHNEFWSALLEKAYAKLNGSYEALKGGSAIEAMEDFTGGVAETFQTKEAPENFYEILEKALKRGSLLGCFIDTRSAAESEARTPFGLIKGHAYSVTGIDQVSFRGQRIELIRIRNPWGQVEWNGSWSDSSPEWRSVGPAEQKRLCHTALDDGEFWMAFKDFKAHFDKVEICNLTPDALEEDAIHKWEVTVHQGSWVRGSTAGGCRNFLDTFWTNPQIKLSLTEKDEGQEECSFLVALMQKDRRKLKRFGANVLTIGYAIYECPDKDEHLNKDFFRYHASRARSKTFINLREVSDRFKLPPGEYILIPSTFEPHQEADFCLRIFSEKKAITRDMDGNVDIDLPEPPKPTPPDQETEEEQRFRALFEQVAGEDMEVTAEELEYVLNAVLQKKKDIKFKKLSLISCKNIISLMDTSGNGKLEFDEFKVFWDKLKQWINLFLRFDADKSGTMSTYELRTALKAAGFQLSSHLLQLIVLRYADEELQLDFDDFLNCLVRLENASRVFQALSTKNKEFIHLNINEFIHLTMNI
T3 sequence (P04632 1-268 partner): T1 sequence (P04632 1-268 partner)
Nature of the assay: Calpain inhibition continuous fluorescence (FRET) assay, Human Calpain 9/NS1. The conditions noted are these: read-out: Human Calpain 9/NS1 IC50. The method in brief: as §1

For `O=C(NC1CC1)C(=O)[C@H](Cc1ccccc1)NC(=O)c1cncn1-c1nc2ccccc2s1` [Compound 43, (S)-1-(benzo[d]thiazol-2-yl)-N-(4-(cyclopropylamino)-3,4-dioxo-1-phenylbutan-2-yl)-1H-imidazole-5-carboxamide], the IC50 on Human Calpain 2/NS1 (Column B), on Human Calpain 1/NS1 (Column A) and at Human Calpain 9/NS1 (Column C) was less than 3 µM in each case.
On to `Cc1nc(C(=O)N[C@@H](Cc2ccccc2)C(=O)C(N)=O)c(-c2ccccc2)[nH]1` [Compound 79, (S)—N-(4-amino-3,4-dioxo-1-phenylbutan-2-yl)-2-methyl-5-phenyl-1H-imidazole-4-carboxamide], for which the IC50 on Human Calpain 2/NS1 (Column B), on Human Calpain 1/NS1 (Column A) and on Human Calpain 9/NS1 (Column C) was less than 3 µM throughout.
In the case of `O=C(NC1CC1)C(=O)[C@H](Cc1ccccc1)NC(=O)c1cncn1-c1ccccn1` [Compound 41, (S)—N-(4-(cyclopropylamino)-3,4-dioxo-1-phenylbutan-2-yl)-1-(pyridin-2-yl)-1H-imidazole-5-carboxamide], the IC50 at Human Calpain 2/NS1 (Column B) was less than 3 µM; on Human Calpain 1/NS1 (Column A), 3 to 10 µM; at Human Calpain 9/NS1 (Column C), 3 to 10 µM.
On to `C=CCOc1ccc(C[C@@H](C=O)NC(=O)c2cc(C)nn2-c2ccccn2)cc1` [Compound 93, (S)—N-(1-(4-(allyloxy)phenyl)-3-oxopropan-2-yl)-3-methyl-1-(pyridin-2-yl)-1H-pyrazole-5-carboxamide], for which the IC50 on Human Calpain 2/NS1 (Column B), at Human Calpain 1/NS1 (Column A) and at Human Calpain 9/NS1 (Column C) was less than 3 µM throughout.
`O=C[C@H](Cc1ccccc1)NC(=O)c1scnc1-n1cc(-c2ccccc2)cn1` [Compound 21, (S)—N-(1-oxo-3-phenylpropan-2-yl)-4-(4-phenyl-1H-pyrazol-1-yl)thiazole-5-carboxamide]: the IC50 at Human Calpain 2/NS1 (Column B), at Human Calpain 1/NS1 (Column A) and at Human Calpain 9/NS1 (Column C) was less than 3 µM in each case.
Turning to `NC(=O)C(=O)[C@H](Cc1ccccc1)NC(=O)c1ccnn1-c1ccccc1` [Compound 10, (S)—N-(4-amino-3,4-dioxo-1-phenylbutan-2-yl)-1-phenyl-1H-pyrazole-5-carboxamide], the IC50 at Human Calpain 2/NS1 (Column B), at Human Calpain 1/NS1 (Column A) and at Human Calpain 9/NS1 (Column C) was less than 3 µM in each case.
With `O=C(NC1CC1)C(=O)[C@H](Cc1ccccc1)NC(=O)c1scnc1-c1ccccn1` [Compound 61], the IC50 on Human Calpain 2/NS1 (Column B), at Human Calpain 1/NS1 (Column A) and on Human Calpain 9/NS1 (Column C) was less than 3 µM each time.
Consider `Cc1noc(-c2ccccc2)c1C(=O)N[C@@H](CC(C)C)C(=O)C(N)=O` [Compound 35, (S)—N-(1-amino-5-methyl-1,2-dioxohexan-3-yl)-3-methyl-5-phenylisoxazole-4-carboxamide], for which the IC50 on Human Calpain 2/NS1 (Column B), at Human Calpain 1/NS1 (Column A) and on Human Calpain 9/NS1 (Column C) was less than 3 µM each time.
On to “(S)—N-(4-amino-1-(3,5-dimethylphenyl)-3,4-dioxobutan-2-yl)-3-methyl-5-phenylisoxazole-4-carboxamide [Compound 98]”, for which the IC50 on Human Calpain 2/NS1 (Column B), on Human Calpain 1/NS1 (Column A) and at Human Calpain 9/NS1 (Column C) was less than 3 µM in each case.
`Cc1cc(C(=O)N[C@@H](Cc2ccccc2)C(=O)C(N)=O)n(-c2nccs2)n1` [Compound 215, (S)—N-(4-amino-3,4-dioxo-1-phenylbutan-2-yl)-3-methyl-1-(thiazol-2-yl)-1H-pyrazole-5-carboxamide]: the IC50 at Human Calpain 2/NS1 (Column B), at Human Calpain 1/NS1 (Column A) and at Human Calpain 9/NS1 (Column C) was less than 3 µM in each case.
As for `O=C[C@H](Cc1ccccc1)NC(=O)c1cncn1-c1n[nH]c2ccccc12` [Compound 102, (S)-1-(1H-indazol-3-yl)-N-(1-oxo-3-phenylpropan-2-yl)-1H-imidazole-5-carboxamide], the IC50 at Human Calpain 2/NS1 (Column B), at Human Calpain 1/NS1 (Column A) and on Human Calpain 9/NS1 (Column C) was less than 3 µM each time.
For `Cc1cc(-n2nc(C(=O)N[C@@H](Cc3ccccc3)C(=O)C(N)=O)cc2C)nc(C)n1` [Compound 232, (S)—N-(4-amino-3,4-dioxo-1-phenylbutan-2-yl)-1-(2,6-dimethylpyrimidin-4-yl)-5-methyl-1H-pyrazole-3-carboxamide], the IC50 at Human Calpain 2/NS1 (Column B) is greater than 10 µM; at Human Calpain 1/NS1 (Column A), greater than 10 µM; at Human Calpain 9/NS1 (Column C), 3 to 10 µM.
Regarding `O=C[C@H](Cc1ccccc1)NC(=O)c1cncn1-c1cc(-c2ncco2)ccn1` [Compound 110, (S)-1-(4-(oxazol-2-yl)pyridin-2-yl)-N-(1-oxo-3-phenylpropan-2-yl)-1H-imidazole-5-carboxamide], the IC50 on Human Calpain 2/NS1 (Column B) is less than 3 µM; at Human Calpain 1/NS1 (Column A), less than 3 µM; at Human Calpain 9/NS1 (Column C), 3 to 10 µM.
`Cc1cc(C(=O)NC(Cc2ccccc2)C(=O)C(=O)NC2CC2)n(-c2ccncc2)n1` (stereo not drawn) [compound 210]: the IC50 at Human Calpain 2/NS1 (Column B), on Human Calpain 1/NS1 (Column A) and on Human Calpain 9/NS1 (Column C) was less than 3 µM in each case.
“(S)—N-(4-amino-3,4-dioxo-1-phenylbutan-2-yl)-1-(tert-butyl)-3-methyl-1H-pyrazole-5-carboxamide [Compound 310]”: the IC50 at Human Calpain 2/NS1 was less than 3 µM; at Human Calpain 1/NS1, less than 3 µM; at Human Calpain 9/NS1 it was 3 to 10 µM.
On to `NC(=O)C(=O)[C@H](Cc1ccccc1)NC(=O)c1c(F)cnn1-c1ccccc1` [Compound 258, (S)—N-(4-amino-3,4-dioxo-1-phenylbutan-2-yl)-4-fluoro-1-phenyl-1H-pyrazole-5-carboxamide], for which the IC50 on Human Calpain 2/NS1 (Column B), on Human Calpain 1/NS1 (Column A) and on Human Calpain 9/NS1 (Column C) was less than 3 µM throughout.
Consider `Cc1cc(C(=O)N[C@@H](Cc2ccccc2)C(=O)C(N)=O)n(-c2cncc3ccccc23)n1` [Compound 133, (S)—N-(4-amino-3,4-dioxo-1-phenylbutan-2-yl)-1-(isoquinolin-4-yl)-3-methyl-1H-pyrazole-5-carboxamide], for which the IC50 on Human Calpain 2/NS1 (Column B), at Human Calpain 1/NS1 (Column A) and on Human Calpain 9/NS1 (Column C) was less than 3 µM each time.
For the compound `Cc1ccccc1-c1c(C(=O)N[C@@H](Cc2ccccc2)C(=O)C(N)=O)cnn1C` [Compound 190, (S)—N-(4-amino-3,4-dioxo-1-phenylbutan-2-yl)-1-methyl-5-(o-tolyl)-1H-pyrazole-4-carboxamide], the IC50 was greater than 10 µM at Human Calpain 2/NS1 (Column B), 3 to 10 µM at Human Calpain 1/NS1 (Column A) and 3 to 10 µM on Human Calpain 9/NS1 (Column C).
